Laboratory results published in patent publication US10047105B2, “Gyrase inhibitors” (Merck Sharp & Dohme Corp., priority 2009, dated 2018).

What was measured:
S. pneumoniae ATCC 51916 = experiment: MIC, S. pneumoniae; type: cell-based; details: S. pneumoniae (Spn52); in µg/mL
S. aureus ATCC 13709 = experiment: MIC, antibacterial potency, S. aureus; type: cell-based; details: S. aureus (SA); in µg/mL

| SMILES | MIC Spn52 (S. pneumoniae ATCC 51916) | MIC, SA (S. aureus ATCC 13709) |
| --- | --- | --- |
| CCc1[nH]c2nc(Sc3ccc4ccc(C(=O)O)nc4c3)nc(N3CC(CNC(=O)C4CC4)C3)c2c1Cl [700,804] | 16 | 4 |
| CCc1[nH]c2nc(Sc3ccc4ccc(C(=O)O)nc4c3)nc(N3CC(CNC(=O)c4cn(C)nc4C(F)(F)F)C3)c2c1Cl [700,805] | 2 | <=0.5 |
| CCc1[nH]c2nc(Sc3ccc4ccc(C(=O)O)nc4c3)nc(N3CC(CNS(C)(=O)=O)C3)c2c1Cl [700,806] | 16 | 4 |
| CCc1[nH]c2nc(Sc3ccc4ccc(C(=O)O)nc4c3)nc(N3CC(NC(=O)C4CC4)C3)c2c1Cl [700,807] | 8 | 2 |
| CCc1[nH]c2nc(Sc3ccc4ccc(C(=O)O)nc4c3)nc(N3CC(NS(C)(=O)=O)C3)c2c1Cl [700,808] | 64 | 8 |
| C#CCOC(=O)NC1CN(c2nc(Sc3ccc4ccc(C(=O)O)nc4c3)nc3[nH]c(CC)c(Cl)c23)C1 [700,809] | 4 | <=0.5 |
| CCc1[nH]c2nc(Sc3cnc4c(N)nc(CN5CCOCC5)nc4c3)nc(N3CC[C@@H](N)C3)c2c1Cl [700,812] | 4 | 4 |
| CCc1[nH]c2nc(Oc3cncc(C#N)c3)nc(Oc3ccc(OC)c(OC)c3)c2c1Cl [700,813] | >64 | >64 |
| CCc1[nH]c2nc(Sc3cnc4nccnc4c3)nc(N3CCCC(CO)C3)c2c1Cl (stereo not shown) [700,814] | 4 | 2 |
| CCc1[nH]c2nc(Sc3cnc4nccnc4c3)nc(N3CCC(CN4CCCC4=O)CC3)c2c1Cl [700,815] | 2 | 2 |
| CCc1[nH]c2nc(Sc3cnc4nccnc4c3)nc(N3C[C@@H]4[C@@H](N)[C@@H]4C3)c2c1Cl [700,816] | <=0.5 | <=0.5 |
| CCc1[nH]c2nc(Sc3cnc4cccnc4c3)nc(N3C[C@@H]4[C@@H](N)[C@@H]4C3)c2c1Cl [700,817] | <=0.5 | <=0.5 |
| CCc1[nH]c2nc(Sc3ccc(C#N)nc3)nc(N3CC[C@@H](N)C3)c2c1Cl [700,818] | 8 | 2 |
| CCc1[nH]c2nc(Sc3cncc(N)c3)nc(N3CC[C@@H](N)C3)c2c1Cl [700,820] | 32 | 16 |
| CCc1[nH]c2nc(Sc3cncc(O)c3)nc(N3CC[C@@H](N)C3)c2c1Cl [700,821] | >64 | >64 |
| CCc1[nH]c2nc(Sc3cnc4nccnc4c3)nc(N3C[C@@H]4[C@H](C3)[C@H]4N(Cc3ccccc3)Cc3ccccc3)c2c1Cl [700,822] | >64 | >64 |
| CCc1[nH]c2nc(Sc3cnc4cccnc4c3)nc(N3C[C@@H]4[C@H](C3)[C@H]4N(Cc3ccccc3)Cc3ccccc3)c2c1Cl [700,823] | 64 | 64 |
| CCc1[nH]c2nc(Sc3cncc(C#N)c3)nc(N3CC[C@@H](N)C3)c2c1Cl [700,824] | 8 | 2 |
| CCc1[nH]c2nc(Sc3ccc4c(N5CC[C@@H](N)C5)cc(C(=O)O)nc4c3)nc(N3CC[C@@H](N)C3)c2c1Cl [700,825] | >64 | 64 |
| CCc1[nH]c2nc(Sc3cnc4c(N)nc(CN5CCNCC5)nc4c3)nc(N3CC[C@@H](N)C3)c2c1Cl [700,826] | 32 | 8 |
| CCc1[nH]c2nc(Sc3cnc4c(N)nc(CN5CCC(N)CC5)nc4c3)nc(N3CC[C@@H](N)C3)c2c1Cl [700,827] | 32 | 4 |
| CCc1[nH]c2nc(Oc3cncc(C#N)c3)nc(Oc3cccc(C(=O)O)c3)c2c1Cl [700,828] | >64 | >64 |

| SMILES | MIC Spn52 (S. pneumoniae ATCC 51916) | MIC, SA (S. aureus ATCC 13709) |
| --- | --- | --- |
| CCc1[nH]c2nc(Sc3cnc4nccnc4c3)nc(N3CCC(CN)CC3)c2c1Cl [700,829] | 32 | 16 |
| CCc1[nH]c2nc(Sc3cnc4nccnc4c3)nc(N3CCC(CO)C3)c2c1Cl (stereo not shown) [700,830] | 2 | <=0.5 |
| C=Cc1nc(Oc2cccc(C#N)c2)nc2[nH]c(CC)c(Cl)c12 [700,831] | 4 | 2 |
| C=CCc1nc(Oc2ccc(Cl)c(C#N)c2)nc2[nH]c(CC)c(Cl)c12 [700,832] | >8 | 4 |
| CCc1[nH]c2nc(Sc3cnc4nccnc4c3)nc(Oc3cccc(C#N)c3)c2c1Cl [700,833] | 2 | <=0.5 |
| CCc1[nH]c2nc(Sc3cnc4nccnc4c3)nc(Oc3ccc(OC)c(C#N)c3)c2c1Cl [700,834] | 8 | 1 |
| CCc1[nH]c2nc(Sc3ccc4cc5c(nc4c3)CCNC5)nc(N3CC[C@@H](N)C3)c2c1Cl [700,841] | 8 | 4 |
| CCc1[nH]c2nc(Sc3cnc4nccnc4c3)nc(N3CC(NC(=O)C4CNC4)C3)c2c1Cl [700,842] | >64 | 4 |
| CCc1[nH]c2nc(Sc3ccc4c(N5CC[C@@H](N)C5)cc(C)nc4c3)nc(N3CC[C@@H](N)C3)c2c1Cl [700,843] | >64 | 64 |
| CCc1[nH]c2nc(Sc3ccc4nnc(C(=O)NCCN5CCCC5)nc4c3)nc(N3CC[C@@H](N)C3)c2c1Cl [700,844] | 32 | 64 |
| CCc1[nH]c2nc(Sc3ccc4nnc(C(=O)NCC5CCNCC5)nc4c3)nc(N3CC[C@@H](N)C3)c2c1Cl [700,845] | >64 | >64 |
| CCc1[nH]c2nc(Sc3ccc4c(N)nc(CN5CCC(N)CC5)nc4c3)nc(N3CC[C@@H](N)C3)c2c1Cl [700,846] | >64 | >64 |
| CCc1[nH]c2nc(Sc3ccc4c(N)nc(CN5CCNCC5)nc4c3)nc(N3CC[C@@H](N)C3)c2c1Cl [700,847] | >64 | >64 |
| CCc1[nH]c2nc(Sc3cc(F)cc(F)c3C#N)nc(N3CC[C@@H](N)C3)c2c1Cl [700,848] | 64 | 64 |
| CCc1[nH]c2nc(Sc3ccc4c(N)n[nH]c4c3)nc(N3CC(N)C3)c2c1Cl [700,850] | >64 | 64 |
| CCc1[nH]c2nc(Sc3cnc4nccnc4c3)nc(N3CCC(c4cccnc4)C3)c2c1Cl (stereo not shown) [700,851] | 4 | <=0.5 |
| CCc1[nH]c2nc(Sc3cnc4cccnc4c3)nc(N3CC4CC3CC4N)c2c1Cl (stereo not shown) [700,857] | 1 | 1 |
| CCc1[nH]c2nc(Sc3cnc4nccnc4c3)nc(N3CC(CNC(=O)C4CNC4)C3)c2c1Cl [700,858] | >64 | 8 |
| CCc1[nH]c2nc(Sc3ccc4cc(C(=O)O)c(C(=O)O)nc4c3)nc(N3CC[C@@H](N)C3)c2c1Cl [700,859] | >64 | 32 |
| CCc1[nH]c2nc(Sc3ccc4c(N5CC(C6(N)CC6)C5)cc(C(=O)O)nc4c3)nc(N3CC[C@@H](N)C3)c2c1Cl [700,860] | >64 | >64 |
| CCc1[nH]c2nc(Sc3ccc4cc5c(=O)[nH][nH]c(=O)c5nc4c3)nc(N3CC[C@@H](N)C3)c2c1Cl [700,861] | >64 | 16 |
| CCc1[nH]c2nc(Sc3ccc4nc(C)cc(C(N)=O)c4c3)nc(C3CC[C@@H](N)C3)c2c1Cl (stereo partly shown) [700,862] | 32 | >64 |
